Values of other authors in patent US6410588B1, “Use of cannabinoids as anti-inflammatory agents” (priority 1998, dated 2002).

How the values were obtained:
[1] = tested on: nitric oxide (NO); conditions: macrophages activated by LPS and IFNγ; cited from earlier work
[2] = tested on: antibody formation against sheep red blood cells; conditions: studies in mice; cited from earlier work
[3] = tested on: IFNγ; conditions: cited from earlier work

CCCCCc1cc(O)c2c(c1)OC(C)(C)C1CCC(C)=CC21 (stereo not shown) [THC, Delta-9-tetrahydrocannabinoid, reference compound]
nitric oxide (NO) production [1]: inhibited | antibody formation against sheep red blood cells [2]: suppresses antibody formation | IFNγ synthesis ([3]; high concentrations (5-24 μg/ml)): completely blocked IFNγ synthesis | IFNγ production ([3]; low concentrations): increase IFNγ production
